Like-named read-outs stand apart in the source and are kept apart here.
Legend:
[1] = tested on: Hep3B cells; assay: Cell cycle analysis by flow cytometry, Hep3B; type: cell-based, human; settings: treatment at IC50, 72 h, control 0.0%
Experimental: (§1) PC3, Hep3B, HepG2 and HeLa cells (1.25 × 10^5 cells/well) were seed in 6-well plates and allowed to attach overnight at 37 °C in 5% CO2. Exponential growing cells were treated with Compound 1 to the IC50 values for 72 h. PTX (10 nM) was included as a positive control of the G2/M phase arrest. Cells from each treatment were trypsinized and collected into single cell suspensions, centrifuged, and fixed in cold ethanol (70%) overnight at −20 °C. The cells were then treated with 0.01 M RNase (Sigma Aldrich, St. Louis, MO, USA) and stained with 7.5 µg/mL PI (Invitrogen) for 30 min in the dark. The percentage of cells in sub-G1, G1, S, and G2/M phases was analyzed with a flow cytometer (Becton Dickinson, FACS Calibur; Beckman Coulter, Inc., Brea, CA, USA) using 10,000 cells for each sample. Data obtained from the flow cytometer were analyzed using the FlowJo Software (Tree Star, Inc., Ashland, OR, USA).

[2] = tested on: HepG2; assay: Antiproliferative MTS assay, HepG2; type: cell-based; settings: Homo sapiens, 72 h
Experimental: (§2) PC3 (prostate), HeLa (cervical) and Hep3B and HepG2 (hepatocellular) human cancer cell lines were purchased from ATCC (Manassas, VA, USA). We also included immortalized human hepatocyte cell line (IHH) as a control of non-cancerous cells. PC3 was grown in RPMI-1640 medium (Sigma Aldrich, St. Louis, MO, USA), while Hep3B, HepG2, HeLa and IHH in DMEM medium (Invitrogen, Thermo Fisher Scientific, Waltham, MA, USA) supplemented with 10% SFB and 2 mM glutamine, all cultures were incubated at 37 °C in 5% CO2.
(§3) Cells (4 × 10^3 cells/well) were seeding in 96-well plates. The cells were treated with the investigated samples (at 0.01, 0.1, 1, 10 and 100 µg/mL) and incubated at 37 °C in 5% CO2 for 72 h. PTX was used as positive control. The number of viable cells in proliferation was checked by MTS assay, following the manufacturer’s instructions. The absorbance was measured at 450 nm using an automated ELISA reader (Promega, Madison, WI, USA).

[3] = tested on: Hep3B; assay: Antiproliferative MTS assay, Hep3B; type: cell-based; settings: Homo sapiens, 72 h
Experimental: as §2, §3

[4] = tested on: Hep3B cells; assay: Annexin V-FITC/PI staining, flow cytometry; type: cell-based, human; settings: Compound 1 21.3 µM, PTX 20 nM, 72 h
Experimental: Apoptosis was evaluated using Annexin V Apoptosis Detection Kit FITC (Thermo Fisher Scientific, CA, USA). Hep3B cells (2.5 × 10^5 cells) were treated with 1 (21.31 µM). PTX (20 nM) was used as positive control of apoptosis. After 72 h, the cells were harvested and washed twice with ice-cold PBS (0.01 M, pH 7.2). After 5 min of centrifuging at 200 g. Annexin V-FITC/PI staining were performed according to manufacturer’s instruction. Cell apoptosis was analyzed on flow cytometer (10,000 cells for each sample). Data obtained from the flow cytometer were analyzed using the FlowJo Software.

[5] = tested on: HeLa; assay: Antiproliferative MTS assay, HeLa; type: cell-based; settings: Homo sapiens, 72 h
Experimental: as §2, §3

[6] = tested on: HepG2 cells; assay: Cell cycle analysis by flow cytometry, HepG2; type: cell-based, human; settings: HepG2, treatment at IC50, 72 h; control 1.5%
Experimental: as §1

[7] = tested on: Bcl-2; assay: RT-PCR, Bcl-2 mRNA in Hep3B cells; type: cell-based, human; settings: 21.3 µM, 72 h, vs non-treated control
Experimental: (§4) RNA was quantified using NanoDrop ND-1000 (Thermo Scientific, Waltham, MA, USA) and the RNA content was normalized. The RT-PCR was performed using a One-Step RT-PCR Kit with Thermo-Start Taq (Thermo Scientific, Waltham, MA, USA) following the manufacturer's instructions. PCR was performed with the following primers sequences: Bcl-2 ([NT]), Bax ([NT] ([NT]). Sequencing was performed at the Instituto de Biotecnología of Universidad Nacional Autónoma de México.

[8] = tested on: RAW 264.7 cells; assay: Cell viability of RAW 264.7 cells (MTS); type: cell-based, murine; settings: at 30 and 60 µg/mL
Experimental: (§5) RAW 264.7 cells (murine macrophage cell line) were purchased from ATCC (Georgetown, Washington, DC, USA ) and cultured in Advanced DMEM/F12 medium (Gibco, Waltham, MA USA) supplemented with 1% GlutaMAX (Gibco) and 3.5% inactivated FBS (Gibco), without antibiotics at 37 °C in 5% CO2.
The cell viability was determined by using MTS from Promega. The cells (1 × 10^4 cells per well) were seeding in 96-well plates in 100 µL of medium and were incubated for 24 h. Then, the cells were treated with various concentrations of the investigated samples, positive control (etoposide, 30 µg/mL) or vehicle (0.4% DMSO in culture medium) and incubated for 24 h. Subsequently, 20 µL of MTS was added at 20 h of treatment for 4 h, after that, the absorbance at 490 nm was measured using a microplate reader (Biotek, Winooski, VT, USA). The absorbance of control cells (untreated) was taken as 100% viability. The concentration of DMSO together with the treatments, in the culture medium was ≤ 0.4%, v/v.

[9] = tested on: PC3; assay: Antiproliferative MTS assay, PC3; type: cell-based; settings: Homo sapiens, PC-3, 72 h
Experimental: as §2, §3

[10] = tested on: immortalized human hepatocyte cell line (IHH); assay: Antiproliferative MTS assay, IHH non-cancerous cells; type: cell-based; settings: 72 h
Experimental: as §2, §3

[11] = tested on: caspase 3/7; assay: Caspase-Glo 3/7 assay in Hep3B cells; type: cell-based, human; settings: 21.3 µM (12 µg/mL), 72 h
Experimental: Hep3B cells (8 × 10^3 cells per well) were plated on 96-well plates and treated with 1 at 21.31 µM for 72 h. After treatment, the caspase 3/7 activity was determined using the luminescent Caspase-Glo® 3/7 Assay (Promega, Madison, WI, USA) following the manufacturer’s instructions. The results were represented as relative units of luminescence.

[12] = tested on: Hep3B cells; assay: Cell morphology, acridine orange/ethidium bromide staining; type: cell-based, human; settings: 21.3 µM (12 µg/mL), 72 h
Experimental: The morphological changes of Hep3B cells exposed to Compound 1 were evaluated using acridine orange (AO) and ethidium bromide (EB) staining. In brief, Hep3B cells (2 × 10^4 cells per well) were seeding in 24-well plates and exposed with Compound 1 at 21.31 µM for 72 h. After 72 h of treatment cells were exposed to a solution of 100 µg/mL AO and 100 µg/mL EB, according to reported procedures. For controls, the cells were grown 71 h before being treated 30 min with H2O2 (positive control of apoptosis) or being boiling in water at 95 °C for 10 s (positive control of necrosis). Then, the cells were observed using a fluorescence microscope.

[13] = tested on: PC3 cells; assay: Cell cycle analysis by flow cytometry, PC3; type: cell-based, human; settings: PC3, treatment at IC50, 72 h; control 0.9%
Experimental: as §1

[14] = tested on: Bax; assay: RT-PCR, Bax mRNA in Hep3B cells; type: cell-based, human; settings: 21.3 µM, 72 h, vs non-treated control
Experimental: as §4

[15] = tested on: nitric oxide (NO) production in LPS-stimulated RAW 264.7 cells; assay: NO (nitrite, Griess) production in LPS-stimulated RAW 264.7 cells; type: cell-based, murine; settings: for inhibitory activity on NO production: highest evaluated concentration (60 µg/mL)
Experimental: as §5
RAW 264.7 cells were seeding (2 × 10^4 cells in 200 µL) and incubated for 24 h, then, were treated with various concentrations of the investigated samples, indomethacin (30 µg/mL) or DMSO (0.4%, v/v) for 2 h followed by stimulation with 1 µg/mL of LPS (from E. coli purchased from Sigma Aldrich, St. Louis, MO, USA) for 21 h. The nitrite is a stable metabolite of the NO and its concentration was calculated with Griess reagent and the aid of a standard curve of NaNO2. Cell-free supernatants (50 µL) were collected and incubated for 10 min with the Griess reagent (50 µL of 0.1% N-(1-napthyl)-ethylenediamine dihydrochloride and 50 µL of 1% sulphanilamide both in 2.5% phosphoric acid) at room temperature and absorbance at 540 nm was measured using a microplate reader.

[16] = tested on: U937 cells; settings: cited from earlier work
[17] = tested on: TPA-induced acute edema in mice ear; assay: TPA-induced ear edema in mice; type: in vivo; settings: 1 mg/ear topical, male ICR mice, 6 h after TPA
Experimental: Edema in mice ear was induced with TPA purchased from Sigma Aldrich (St. Louis, MO, USA), following the method previously described. All animals were treated in accordance with Official Mexican Rule of Technical Specifications for the Production, Care and Use of Laboratory Animals (NOM-062-ZOO-1999 Guidelines) and international ethical guidelines for the care and use of experimental animals. The experimental protocol was authorized by the local Health Research Committee (Instituto Mexicano del Seguro Social (IMSS)). The experiments were carried out with male ICR mice weighing between 25–30 g (five animals per treatment). […] The treatments were applied topically on right ear and vehicle on left ear, thereafter, the edema was induced by administration topically of TPA (2.5 µg) over both ears. Six hours after administration of TPA, the animals were sacrificed by cervical dislocation. Circular sections 6 mm in diameter were taken from both the treated and non-treated ears and weighed to determine the inflammation.

[18] = tested on: pro-inflammatory cytokines; parameters: method as in PMID 27921103; settings: 40 µM; via heme oxygenase-1 induction; cited from earlier work
[19] = 6 µM, mediated by caspase-3-like (CPP32-like) activation

IC50 [2] [µM]	IC50 [3] [µM]	IC50 [5] [µM]	IC50 [9] [µM]	Compound	IC50 [10] [µM]	also measured
26.6 ± 3.5	21.3 ± 3.5	37.3 ± 3.5	32 ± 4.4	CC(C)=CCC/C(C)=C/CC/C(C)=C/CC/C(C)=C/C[C@@H](O)/C=C(\C)CC/C=C(\C)CC/C=C(\C)CCC=C(C)C [Compound 1, (6E,10E,14E,18E,22E,26E)-2,6,10,14,19,23,27,31-octamethyldotriaconta-2,6,10,14,18,22,26,30-octaen-16R-ol]	88.8 ± 8.9	population in sub-G1 phase [1]: 18.5%; percentage of early phase apoptosis cells [4]: 22.6%; population in sub-G1 phase [6]: 14.8%; Bcl-2 transcripts [7]: inhibition of Bcl-2; effect on cell viability of RAW 264.7 cells [8]: decreased the cell viability; caspase 3/7 activation [11]: statistically significant increase in caspase 3/7 activation; morphological changes (AO/EB fluorescence microscopy) [12]: apoptotic bodies formation and clear condensation of chromatin; population in sub-G1 phase [13]: 19.0%; Bax transcripts [14]: increased Bax transcripts; Bax/Bcl-2 ratio [14]: increasing the Bax/Bcl-2 ratio; inhibition at 25.6 µM ([15]; Mus musculus, RAW264.7, 14.4 µg/mL (25.6 µM)): 28.6 ± 1.81%
76.6 ± 6	50.3 ± 5.9	95.7 ± 12	74.2 ± 5	CC(C)=CCC/C(C)=C/CC/C(C)=C/CC/C(C)=C/CC/C(C)=C\CC/C(C)=C\CC/C(C)=C\CC/C(C)=C\CC/C(C)=C\CC/C(C)=C\CC/C(C)=C\CC/C(C)=C\CO [Compound 2, (Z8,E3,ω)-dodecaprenol]	76.6 ± 6	inhibitory activity on NO production [15]: negligible inhibitory activity
74.2 ± 5.5	69.7 ± 5.5	84.1 ± 8.9	76.4 ± 6.6	CC(C)=CCC/C(C)=C/CC/C(C)=C/CC/C(C)=C/CC/C(C)=C\CC/C(C)=C\CC/C(C)=C\CC/C(C)=C\CC/C(C)=C\CC/C(C)=C\CC/C(C)=C\CC/C(C)=C\CC/C(C)=C\CO [Compound 3, (Z9,E3,ω)-tridecaprenol]	74.1 ± 5.5	inhibitory activity on NO production [15]: negligible inhibitory activity
0.0065 ± 0.0007	0.008 ± 0.001	0.01 ± 0.002	0.0154 ± 0.0035	CC(=O)O[C@H]1C(=O)[C@@]2(C)[C@H]([C@H](OC(=O)c3ccccc3)[C@]3(O)C[C@H](OC(=O)[C@H](O)[C@@H](NC(=O)c4ccccc4)c4ccccc4)C(C)=C1C3(C)C)[C@]1(OC(C)=O)CO[C@@H]1C[C@@H]2O [Paclitaxel, reference compound]	0.08 ± 0.005	–
–	–	–	–	CC(C)=CCC/C(C)=C/CC/C(C)=C/CC/C(C)=C/CC/C(C)=C/CC/C(C)=C/CC/C(C)=C/CC/C(C)=C\CC/C(C)=C/CCC(C)CCOP(=O)(O)O (stereo not drawn) [dihydrodecaprenyl phosphates, dihydrodecaprenyl phosphate]	–	apoptosis in U937 cells [16, 19]: induced apoptosis
–	–	–	–	COc1ccc2c(c1)c(CC(=O)O)c(C)n2C(=O)c1ccc(Cl)cc1 [indomethacin, reference compound]	–	edema inhibition [17]: 87.6 ± 0.4%; inhibition at 30 µg/mL ([15]; Mus musculus, RAW264.7, 30 µg/mL): 54.6 ± 8.9%
–	–	–	–	CC(C)=CCC/C(C)=C/CC/C(C)=C/CC/C(C)=C/CC/C(C)=C/CC/C(C)=C/CC/C(C)=C/CC/C(C)=C/CC/C(C)=C/CO [solanesol]	–	production of pro-inflammatory cytokines [18]: suppresses the production of pro-inflammatory cytokines
–	–	–	–	Dihydroheptaprenyl phosphate	–	apoptosis in U937 cells [16, 19]: induced apoptosis
–	–	–	–	Dolichyl phosphate	–	apoptosis in U937 cells ([16]; 8 µg/mL, by the MAP kinase cascade): induced apoptosis

From paper PMC6651038, “16-Hydroxy-Lycopersene, a Polyisoprenoid Alcohol Isolated from Tournefortia hirsutissima, Inhibits Nitric Oxide Production in RAW 264.7 Cells and Induces Apoptosis in Hep3B Cells” (Molecules, 2019)
